Patent US11519834B2, “In vitro intestinal drug disposition device” (Enphasys AB, priority 2017, dated 2022)
Read-outs that look alike come from different tables or passages of the source.

How the values were obtained:
[1] = compared with micronized (ball-milled) danazol, FIG. 7
Caco-2 cells [2] = experiment: Permeation across Caco-2 monolayers in 12-well Transwell plate; assay type: in vitro ADME, human; conditions: Caco-2 monolayer, 1.12 cm^2, 10 μM lucifer yellow
Method: (§1) The buffer was spiked with 10 μM lucifer yellow, which was used as a paracellular marker to check monolayer integrity. HBSS containing 4% bovine albumin serum was used in the receiver compartment to ensure sink conditions.
Caco-2 cells were grown on inserts in 12-well Transwell plates (surface area 1.12 cm^2). Transwell plates are typically used for in vitro absorption studies. The experiment was performed at 37° C. at 500 rpm with 400 μl of buffer at the donor and 1.2 ml of buffer at the receiver side.

Caco-2 cells [3] = test system: Caco-2 cells
Method: as §1
Caco-2 cells were grown on Transwell inserts (diameter […]) and mounted in the device resulting in a surface area of 28.27 cm^2. The receiver compartment contained 180 ml and the donor 60 ml. A magnetic stirrer was used to mix the buffer in the receiver compartment and a stirrer propeller to mix the buffer in the donor compartment.

Caco-2 cells [4] = experiment: Permeation across Caco-2 monolayers in μFlux; assay type: in vitro ADME, human; conditions: Caco-2 monolayer, 0.78 cm^2, 10 μM lucifer yellow
Method: HBSS containing 4% bovine albumin serum was used in the receiver compartment to ensure sink conditions. […] Donor and receiver compartments were kept at 37° C. and typically contained 15 ml of buffer. Caco-2 cells were grown in Transwell plates and placed between the compartments resulting in a surface of 0.78 cm^2. Magnetic stirring was used for mixing in both the donor and receiver compartment. The μDISS profiler allowed in situ concentration monitoring with fiber optic probes.

absorption [1] | Lucifer yellow Papp (Caco-2 cells [2]) | Lucifer yellow Papp (Caco-2 cells [3]) | Lucifer yellow Papp (Caco-2 cells [4]) | Compound
much lower absorption |  |  |  | C#C[C@]1(O)CC[C@H]2[C@@H]3CCC4=Cc5oncc5C[C@]4(C)[C@H]3CC[C@@]21C [Unprocessed crystalline danazol, danazol]
 | 1 ×10⁻⁶ cm/s | 2.19 ×10⁻⁶ cm/s | 39.37 ×10⁻⁶ cm/s | lucifer yellow
